Test results published in patent US8741934B2, “Inhibitors of ion channels” (Pfizer Limited, priority 2007, dated 2014).

Target: T1, hSCN3A sodium channels (Homo sapiens, UniProt Q9NY46)
T1 construct: expressed in transfected cells
Assay: hSCN3A electrophysiology, Ionworks Quattro automated platform (Table C)
Type: cell-based
Conditions: for inhibition at 3 µM: 3 μM compound, read-out: SCN3A % INHIB HTS IWQ 3 μM; for inhibition at 10 µM: 10 μM compound, read-out: SCN3A % INHIB HTS IWQ 10 μM
Description: Human Embryonic Kidney (HEK) cells were transfected with an hSCN3A construct using lipofectamine reagent (Invitrogen), using standard techniques. […] Clones were screened for expression using the whole-cell voltage-clamp technique.
HEK cells stably transfected with hSCN3A were maintained in DMEM medium supplemented with 10% heat-inactivated fetal bovine serum and 400 μg/ml G418 sulfate in an incubator at 37° C. with a humidified atmosphere of 10% CO2. […] For electrophysiological studies, cells were removed from the culture flask by brief trypsinization and replated at low density onto glass cover slips. Cells were typically used for electrophysiological experiments within 24 to 72 h after plating.
Electrophysiological assays were also conducted using the Ionworks Quattro automated electrophysiological platform (Molecular Devices Corp) (Table C). Intracellular and extracellular solutions were as described above with the following changes, 100 μg/ml amphotericin was added to the intracellular solution to perforate the membrane and allow electrical access to the cells. hSCN3A cells were grown and harvested as for PatchXpress and cells were resuspended in extracellular solution at a concentration of 3-4×10^6 cells/ml. The onboard liquid handling facility of the Ionworks Quattro was used for dispensing cells and application of test compounds. A voltage protocol was then applied that comprised of a voltage step to fully inactivate the sodium channels, followed by a brief hyperpolarized recovery period to allow partial recovery from inactivation for unblocked sodium channels, followed by a test depolarized voltage step to assess magnitude of inhibition by test compound. Compound effect was determined based on current amplitude difference between the pre-compound addition and post-compound addition scans.

T1 sequence (Q9NY46 whole entry): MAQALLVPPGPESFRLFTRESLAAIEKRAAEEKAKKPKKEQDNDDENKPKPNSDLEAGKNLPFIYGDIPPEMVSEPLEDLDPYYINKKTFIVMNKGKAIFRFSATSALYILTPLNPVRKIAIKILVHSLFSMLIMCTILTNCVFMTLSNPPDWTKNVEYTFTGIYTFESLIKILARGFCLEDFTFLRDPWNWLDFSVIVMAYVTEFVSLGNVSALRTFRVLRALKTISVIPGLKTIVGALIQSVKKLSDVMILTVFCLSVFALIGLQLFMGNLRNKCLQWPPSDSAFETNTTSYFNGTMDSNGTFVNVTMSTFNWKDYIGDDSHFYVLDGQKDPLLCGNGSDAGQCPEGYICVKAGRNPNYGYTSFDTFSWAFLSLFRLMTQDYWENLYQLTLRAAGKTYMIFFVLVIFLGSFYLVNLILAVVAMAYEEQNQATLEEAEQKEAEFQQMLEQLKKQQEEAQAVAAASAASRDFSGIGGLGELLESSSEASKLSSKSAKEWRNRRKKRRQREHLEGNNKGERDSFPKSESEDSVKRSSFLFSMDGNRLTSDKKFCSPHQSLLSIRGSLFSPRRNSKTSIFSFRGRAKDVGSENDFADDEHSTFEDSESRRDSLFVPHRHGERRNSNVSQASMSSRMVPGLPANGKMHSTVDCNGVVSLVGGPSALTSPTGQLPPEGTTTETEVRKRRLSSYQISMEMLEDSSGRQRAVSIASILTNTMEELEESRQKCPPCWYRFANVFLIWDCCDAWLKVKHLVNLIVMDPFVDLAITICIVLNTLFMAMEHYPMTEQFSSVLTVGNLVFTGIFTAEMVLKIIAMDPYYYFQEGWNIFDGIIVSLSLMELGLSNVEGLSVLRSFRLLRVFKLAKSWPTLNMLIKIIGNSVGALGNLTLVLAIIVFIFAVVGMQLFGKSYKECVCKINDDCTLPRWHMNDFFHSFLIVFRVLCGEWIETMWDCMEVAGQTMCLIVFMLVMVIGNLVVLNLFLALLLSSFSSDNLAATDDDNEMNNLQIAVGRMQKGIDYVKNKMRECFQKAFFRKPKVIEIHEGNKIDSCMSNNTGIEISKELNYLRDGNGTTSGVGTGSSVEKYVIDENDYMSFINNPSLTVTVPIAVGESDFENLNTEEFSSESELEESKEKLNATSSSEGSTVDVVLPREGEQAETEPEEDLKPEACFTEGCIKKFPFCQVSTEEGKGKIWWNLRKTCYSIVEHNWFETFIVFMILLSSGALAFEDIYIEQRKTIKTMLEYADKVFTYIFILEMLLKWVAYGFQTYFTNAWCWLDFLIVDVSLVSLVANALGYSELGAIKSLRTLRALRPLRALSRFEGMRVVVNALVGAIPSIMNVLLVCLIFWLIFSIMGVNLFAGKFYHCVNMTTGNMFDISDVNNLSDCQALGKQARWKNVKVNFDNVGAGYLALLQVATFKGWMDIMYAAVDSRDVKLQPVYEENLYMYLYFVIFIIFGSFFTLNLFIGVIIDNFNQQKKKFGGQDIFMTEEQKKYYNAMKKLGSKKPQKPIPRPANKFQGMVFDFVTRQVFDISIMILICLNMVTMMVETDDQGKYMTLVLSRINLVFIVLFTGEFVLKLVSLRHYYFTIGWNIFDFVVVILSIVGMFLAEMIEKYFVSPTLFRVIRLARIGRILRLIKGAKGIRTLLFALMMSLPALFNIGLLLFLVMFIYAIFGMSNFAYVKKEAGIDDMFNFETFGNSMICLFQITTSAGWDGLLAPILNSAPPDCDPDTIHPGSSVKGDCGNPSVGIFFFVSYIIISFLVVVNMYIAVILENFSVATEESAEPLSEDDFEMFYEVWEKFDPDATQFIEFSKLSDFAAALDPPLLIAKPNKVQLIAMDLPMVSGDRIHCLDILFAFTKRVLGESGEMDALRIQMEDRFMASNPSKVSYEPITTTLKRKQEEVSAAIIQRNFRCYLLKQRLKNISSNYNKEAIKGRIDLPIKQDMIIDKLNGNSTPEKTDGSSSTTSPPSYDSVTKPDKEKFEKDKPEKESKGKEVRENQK

Compound	inhibition at 3 µM	inhibition at 10 µM
CCN(C(=O)c1ccc(S(=O)(=O)Nc2nccs2)cc1)[C@H](CO)c1ccccc1 [Example 219, N-ethyl-N-[(1S)-2-hydroxy-1-phenylethyl]-4-[(1,3-thiazol-2-yl-amino)sulfonyl]benzamide]	13.1%	1.08%
CC(NC(=O)c1ccc(S(=O)(=O)Nc2nccs2)cc1)c1ccccc1Cl (stereo not shown) [Example 143, N-[1-(2-chlorophenyl)ethyl]-4-[(1,3-thiazol-2-ylamino)sulfonyl]benzamide]	16%	32%
O=C(NCc1cc(F)ccc1C(F)(F)F)c1ccc(S(=O)(=O)Nc2nccs2)cc1 [Example 81, N-[5-fluoro-2-(trifluoromethyl)benzyl]-4-[(1,3-thiazol-2-ylamino)sulfonyl]benzamide]	34.7%	65.7%
COc1ccc(OC2CCCN(C(=O)c3ccc(S(=O)(=O)Nc4nccs4)cc3)C2)cc1 (stereo not shown) [Example 203, 4-{[3-(4-Methoxyphenoxy)piperidin-1-yl]carbonyl}-N-1,3-thiazol-2-yl-benzenesulfonamide]	13.1%	17.7%
Cc1ccc(CNC(=O)c2ccc(S(=O)(=O)Nc3nccs3)cc2)cc1 [Example 98, N-(4-methylbenzyl)-4-[(1,3-thiazol-2-ylamino)sulfonyl]benzamide]	28.1%	36.6%
Cc1cc(C)nc(CC2CCCCCN2C(=O)c2ccc(S(=O)(=O)Nc3nccs3)cc2)c1 (stereo not shown) [Example 246, 4-({2-[(4,6-Dimethylpyridin-2-yl)methyl]azepan-1-yl}carbonyl)-N-1,3-thiazol-2-yl-benzenesulfonamide]	-0.31%	-1.47%
C[C@H]([C@@H](O)c1ccccc1)N(C)C(=O)c1ccc(S(=O)(=O)Nc2nccs2)cc1 [Example 241, N-[(1R,2S)-2-hydroxy-1-methyl-2-phenylethyl]-N-methyl-4-[(1,3-thiazol-2-ylamino)sulfonyl]benzamide]	21.7%	11.6%
O=C(NCc1c(F)cccc1C(F)(F)F)c1ccc(S(=O)(=O)Nc2nccs2)cc1 [Example 84, N-[2-fluoro-6-(trifluoromethyl)benzyl]-4-[(1,3-thiazol-2-ylamino)sulfonyl]benzamide]	17.7%	22.2%
COc1cccc(CCNC(=O)c2ccc(S(=O)(=O)Nc3nccs3)cc2)c1 [Example 166, N-[2-(3-methoxyphenyl)ethyl]-4-[(1,3-thiazol-2-ylamino)sulfonyl]benzamide]	30.6%	36.3%
O=C(NCc1cccc(OC(F)(F)F)c1)c1ccc(S(=O)(=O)Nc2nccs2)c(Cl)c1 [Example 285, 3-Chloro-4-[(1,3-thiazol-2-ylamino)sulfonyl]-N-[3-(trifluoromethoxy)benzyl]benzamide]	15.1%	39.1%
O=C(c1ccc(S(=O)(=O)Nc2nccs2)cc1)N1CCCC1c1ccccc1 (stereo not shown) [Example 205, 4-[(2-Phenylpyrrolidin-1-yl)carbonyl]-N-1,3-thiazol-2-yl-benzenesulfonamide]	11.3%	27.3%
O=C(NCC1(c2ccccc2)CCCC1)c1ccc(S(=O)(=O)Nc2nccs2)cc1 [Example 121, N-[(1-phenylcyclopentyl)methyl]-4-[(1,3-thiazol-2-ylamino)sulfonyl]benzamide]	31.1%	30.2%
O=C(c1ccc(S(=O)(=O)Nc2nccs2)cc1)N1CCCCC1c1cccc(F)c1 (stereo not shown) [Example 221, 4-{[2-(3-Fluorophenyl)piperidin-1-yl]carbonyl}-N-1,3-thiazol-2-yl-benzenesulfonamide]	19.9%	21.8%
O=C(c1ccc(S(=O)(=O)Nc2nccs2)cc1)N1CCC(Cc2ccccc2)C1 (stereo not shown) [Example 282, 4-[(3-Benzylpyrrolidin-1-yl)carbonyl]-N-1,3-thiazol-2-yl-benzenesulfonamide]	29.1%	11.4%
